Assay results published in the NIST ThermoML archive (doi:10.1021/je060271a).

Conditions: Liquid, Vibrating tube method

CCCCCCC(=O)OCC(COC(=O)CCCCCC)(COC(=O)CCCCCC)COC(=O)CCCCCC [pentaerythritol tetraheptanoate]
Conditions	mass density [kg/m3]
323.15 K, 32352 kPa	976
323.15 K, 32396 kPa	976
323.15 K, 32734 kPa	976.2
323.15 K, 32779 kPa	976.2
323.15 K, 32824 kPa	976.2
323.15 K, 32870 kPa	976.3
323.15 K, 32924 kPa	976.3
323.15 K, 32970 kPa	976.3
323.15 K, 33016 kPa	976.4
323.15 K, 33072 kPa	976.4
323.15 K, 33118 kPa	976.4
323.15 K, 33164 kPa	976.4
323.15 K, 33219 kPa	976.5
323.15 K, 33314 kPa	976.4
323.15 K, 33463 kPa	976.7
323.15 K, 33519 kPa	976.7
323.15 K, 33566 kPa	976.7
323.15 K, 33612 kPa	976.6
323.15 K, 33657 kPa	976.7
323.15 K, 33718 kPa	976.7
323.15 K, 33778 kPa	976.7
323.15 K, 33830 kPa	976.8
323.15 K, 33882 kPa	976.7
323.15 K, 33940 kPa	976.9
323.15 K, 33970 kPa	976.8
323.15 K, 34065 kPa	976.9
323.15 K, 34098 kPa	977
323.15 K, 34123 kPa	977
323.15 K, 34149 kPa	977.1
323.15 K, 34181 kPa	977
323.15 K, 34207 kPa	977.1
323.15 K, 34235 kPa	977.1
323.15 K, 34262 kPa	977.1
323.15 K, 34295 kPa	977
323.15 K, 34323 kPa	977.2
323.15 K, 34351 kPa	977.1
323.15 K, 34379 kPa	977.2
323.15 K, 34415 kPa	977.1
323.15 K, 34444 kPa	977.2
323.15 K, 34481 kPa	977.2
323.15 K, 34513 kPa	977.3
323.15 K, 34545 kPa	977.2
323.15 K, 34570 kPa	977.3
323.15 K, 34571 kPa	977.2
323.15 K, 34574 kPa	977.2
323.15 K, 34576 kPa	977.3
323.15 K, 34578 kPa	977.2
323.15 K, 34581 kPa	977.3
323.15 K, 34584 kPa	977.2
323.15 K, 34586 kPa	977.3
323.15 K, 34589 kPa	977.3
323.15 K, 34593 kPa	977.2
323.15 K, 34596 kPa	977.3
323.15 K, 34600 kPa	977.3
323.15 K, 34605 kPa	977.3
323.15 K, 34611 kPa	977.3
323.15 K, 34616 kPa	977.2
343.13 K, 13322 kPa	950.4
343.13 K, 13336 kPa	950.3
343.13 K, 13347 kPa	950.4
343.13 K, 13362 kPa	950.3
343.13 K, 13471 kPa	950.5
343.13 K, 13485 kPa	950.5
343.14 K, 13145 kPa	950
343.14 K, 13156 kPa	950.2
343.14 K, 13167 kPa	950.1
343.14 K, 13180 kPa	950.2
343.14 K, 13192 kPa	950.3
343.14 K, 13203 kPa	950.3
343.14 K, 13216 kPa	950.2
343.14 K, 13227 kPa	950.2
343.14 K, 13238 kPa	950.2
343.14 K, 13252 kPa	950.1
343.14 K, 13263 kPa	950.3
343.14 K, 13274 kPa	950.4
343.14 K, 13286 kPa	950.4
343.14 K, 13300 kPa	950.3
343.14 K, 13311 kPa	950.2
343.14 K, 13373 kPa	950.2
343.14 K, 13384 kPa	950.4
343.14 K, 13399 kPa	950.4
343.14 K, 13410 kPa	950.5
343.14 K, 13420 kPa	950.4
343.14 K, 13431 kPa	950.5
343.14 K, 13448 kPa	950.3
343.14 K, 13460 kPa	950.4
343.14 K, 13497 kPa	950.4
343.14 K, 13509 kPa	950.4
343.14 K, 13521 kPa	950.4
343.14 K, 13535 kPa	950.5
343.14 K, 13547 kPa	950.5
343.14 K, 13560 kPa	950.6
343.14 K, 13574 kPa	950.5
343.14 K, 13586 kPa	950.6
343.14 K, 13598 kPa	950.5
343.14 K, 13610 kPa	950.6
343.14 K, 13622 kPa	950.6
343.14 K, 13636 kPa	950.6
343.14 K, 13648 kPa	950.7
343.14 K, 13870 kPa	950.7
343.14 K, 13883 kPa	950.7
343.14 K, 13898 kPa	950.7
343.14 K, 13911 kPa	950.8
343.14 K, 13926 kPa	950.7
343.14 K, 13938 kPa	950.8
343.14 K, 13951 kPa	950.8
343.14 K, 13964 kPa	950.8
343.14 K, 13977 kPa	950.7
343.14 K, 13992 kPa	950.8
343.14 K, 14004 kPa	950.8
343.14 K, 14018 kPa	950.8
